{"source": "paper PMC7216583", "about": "(Parasites & Vectors, 2020)", "key": {"[1]": {"target": "opioid receptor-like1 (ORL1) receptor", "parameters": "method as in S-inhibitor catalog", "conditions": "vendor brief description; ref S-inhibitor catalog; cited from earlier work"}, "[2]": {"test_system": "Toxoplasma gondii RH-2F tachyzoites", "assay": "microbe, parasite or virus in culture", "conditions": "72 h"}, "[3]": {"assay": "in vitro", "conditions": "human, Host viability (%) mean"}, "[4]": {"test_system": "cancer cell lines", "parameters": "method as in S-inhibitor catalog", "conditions": "vendor brief description; ref S-inhibitor catalog; cited from earlier work"}, "[5]": {"target": "γ-secretase", "parameters": "method as in S-inhibitor catalog", "conditions": "vendor brief description; ref S-inhibitor catalog; read-out: IC50, membrane-based γ-secretase; cited from earlier work"}, "[6]": {"target": "γ-secretase", "parameters": "method as in S-inhibitor catalog", "conditions": "vendor brief description; ref S-inhibitor catalog; read-out: IC50, cell-based γ-secretase; cited from earlier work"}, "[7]": {"target": "TGF-β receptor type II (TβRII)", "parameters": "method as in S-inhibitor catalog", "conditions": "vendor brief description; ref S-inhibitor catalog; cited from earlier work"}, "[8]": {"test_system": "MDMX", "parameters": "method as in S-inhibitor catalog", "conditions": "vendor brief description; ref S-inhibitor catalog; read-out: IC50, MDMX suppression; cited from earlier work"}, "[9]": {"test_system": "Aurora B", "parameters": "method as in S-inhibitor catalog", "conditions": "vendor brief description; ref S-inhibitor catalog; cited from earlier work"}, "[10]": {"test_system": "Aurora A", "parameters": "method as in S-inhibitor catalog", "conditions": "vendor brief description; ref S-inhibitor catalog; cited from earlier work"}, "[11]": {"test_system": "Akt phosphorylation on S473", "parameters": "method as in S-inhibitor catalog", "conditions": "vendor brief description; ref S-inhibitor catalog; cited from earlier work"}, "[12]": {"test_system": "Akt phosphorylation on T308", "parameters": "method as in S-inhibitor catalog", "conditions": "vendor brief description; ref S-inhibitor catalog; cited from earlier work"}, "[13]": {"test_system": "p38α", "conditions": "read-out: IC50, p38α; vendor brief description; ref S-inhibitor catalog; cited from earlier work"}, "[14]": {"test_system": "Cdc7", "parameters": "method as in S-inhibitor catalog", "conditions": "vendor brief description; ref S-inhibitor catalog; cited from earlier work"}, "[15]": {"test_system": "CDK9", "parameters": "method as in S-inhibitor catalog", "conditions": "vendor brief description; ref S-inhibitor catalog; cited from earlier work"}, "[16]": {"test_system": "PI3Kα", "parameters": "method as in S-inhibitor catalog", "conditions": "vendor brief description; ref S-inhibitor catalog; cited from earlier work"}, "[17]": {"test_system": "mTOR", "parameters": "method as in S-inhibitor catalog", "conditions": "vendor brief description; ref S-inhibitor catalog; cited from earlier work"}, "[18]": {"test_system": "PI3Kβ", "parameters": "method as in S-inhibitor catalog", "conditions": "vendor brief description; ref S-inhibitor catalog; cited from earlier work"}, "[19]": {"test_system": "Ret", "parameters": "method as in S-inhibitor catalog", "conditions": "vendor brief description; ref S-inhibitor catalog; cited from earlier work"}, "[20]": {"test_system": "Flt3", "parameters": "method as in S-inhibitor catalog", "conditions": "vendor brief description; ref S-inhibitor catalog; cited from earlier work"}, "[21]": {"test_system": "JAK2", "parameters": "method as in S-inhibitor catalog", "conditions": "vendor brief description; ref S-inhibitor catalog; cited from earlier work"}, "[22]": {"target": "farnesoid X receptor (FXR)", "parameters": "method as in S-inhibitor catalog", "conditions": "vendor brief description; ref S-inhibitor catalog; read-out: EC50, FXR agonist; cited from earlier work"}, "[23]": {"target": "Notch (γ-secretase)", "parameters": "method as in S-inhibitor catalog", "conditions": "vendor brief description; ref S-inhibitor catalog; cited from earlier work"}, "[24]": {"target": "APPL (γ-secretase)", "parameters": "method as in S-inhibitor catalog", "conditions": "vendor brief description; ref S-inhibitor catalog; cited from earlier work"}, "[25]": {"test_system": "Mps1", "parameters": "method as in S-inhibitor catalog", "conditions": "vendor brief description; ref S-inhibitor catalog; cited from earlier work"}, "[26]": {"test_system": "Toxoplasma gondii RH-2F tachyzoites", "conditions": "preliminary screen of compound library; mean"}, "[27]": {"conditions": "read-out: Parasite inhibition (%) mean, preliminary screen of compound library, mean"}, "[28]": {"conditions": "read-out: Parasite inhibition (%) mean"}}, "note": "pEC50, pIC50, pKi: −log10 of the molar value. Where two headings read alike, the source gives them in different places."}
{"compound": "CCc1ccc(OCc2ccccc2C(=O)Nc2ccc3nc(C)cc(N)c3c2)cc1", "note": "[JTC-801]", "values": [{"measurement": "pIC50", "setting": "[1]", "result": 7.03}, {"measurement": "inhibition of growth at 5 µM", "setting": "[2]; [27]", "result": 98.8, "unit": "%"}, {"measurement": "viability at 72 h", "setting": "[3]", "result": 16.4, "unit": "%"}]}
{"compound": "O=C(Cc1ccc(-c2ccc(OCCN3CCOCC3)cc2)cn1)NCc1ccccc1", "note": "[KX2-391]", "values": [{"measurement": "inhibition of growth at 5 µM", "setting": "[2]; [27]", "result": 7.6, "unit": "%"}, {"measurement": "GI50", "setting": "[4]", "result": "9 to 60", "unit": "nM"}]}
{"compound": "C[C@H](NC(=O)[C@@H](O)c1cc(F)cc(F)c1)C(=O)N[C@@H]1C(=O)N(C)c2ccccc2-c2ccccc21", "note": "[LY411575]", "values": [{"measurement": "pIC50", "setting": "[5]", "result": 10.11}, {"measurement": "pIC50", "setting": "[6]", "result": 10.09}, {"measurement": "inhibition of growth at 5 µM", "setting": "[2]; [27]", "result": 0.9, "unit": "%"}]}
{"compound": "c1ccc(-c2nn3c(c2-c2ccnc4cc(OCCN5CCOCC5)ccc24)CCC3)nc1", "note": "[LY2109761]", "values": [{"measurement": "pKi", "setting": "[7]", "result": 6.52}, {"measurement": "inhibition of growth at 5 µM", "setting": "[2]; [28]", "result": 46.7, "unit": "%"}]}
{"compound": "CN1CCN(c2ccc([N+](=O)[O-])c3no[n+]([O-])c23)CC1", "note": "[NSC-207895 (XI-006)]", "values": [{"measurement": "pIC50", "setting": "[8]", "result": 5.60}, {"measurement": "inhibition of growth at 5 µM", "setting": "[2]; [27]", "result": 0.2, "unit": "%"}]}
{"compound": "CC(=O)NCC(=O)N1[C@H]2CC[C@H]1c1cc(Nc3ncc(C(F)(F)F)c(NC4CCC4)n3)ccc12", "note": "[PF-03814735]", "values": [{"measurement": "pIC50", "setting": "[9]", "result": 8.30}, {"measurement": "inhibition of growth at 5 µM", "setting": "[2]; [27]", "result": 80.4, "unit": "%"}, {"measurement": "viability at 72 h", "setting": "[3]", "result": 60.3, "unit": "%"}, {"measurement": "pIC50", "setting": "[10]", "result": 9.10}]}
{"compound": "COc1ccc(-c2cc3c(C)nc(N)nc3n([C@H]3CC[C@H](OCCO)CC3)c2=O)cn1", "note": "[PF-04691502]", "values": [{"measurement": "pIC50", "setting": "[11]", "result": 8.42}, {"measurement": "inhibition of growth at 5 µM", "setting": "[2]; [27]", "result": 11.5, "unit": "%"}, {"measurement": "pIC50", "setting": "[12]", "result": 8.12}]}
{"compound": "CNC(=O)c1ccc(C)c(-n2c(C)cc(OCc3ccc(F)cc3F)c(Br)c2=O)c1", "note": "[PH-797804]", "values": [{"measurement": "inhibition of growth at 5 µM", "setting": "[2]; [27]", "result": 1.5, "unit": "%"}, {"measurement": "pIC50", "setting": "[13]", "result": 7.59}]}
{"compound": "O=C1NCCc2[nH]c(-c3ccncc3)cc21", "note": "[PHA-767491]", "values": [{"measurement": "pIC50", "setting": "[14]", "result": "[…]"}, {"measurement": "pIC50", "setting": "[15]", "result": "[…]"}, {"measurement": "inhibition of growth at 5 µM", "setting": "[2]; [28]", "result": 2.1, "unit": "%"}]}
{"compound": "CCn1nnc2c(N3CCOCC3)nc(-c3ccc(NC(=O)Nc4ccc(C(=O)N5CCN(C)CC5)cc4)cc3)nc21", "note": "[PKI-402]", "values": [{"measurement": "pIC50", "setting": "[16]", "result": 8.70}, {"measurement": "pIC50", "setting": "[17]", "result": 8.52}, {"measurement": "inhibition of growth at 5 µM", "setting": "[2]; [27]", "result": 36.9, "unit": "%"}, {"measurement": "pIC50", "setting": "[18]", "result": "[…]"}]}
{"compound": "Cc1cnc(Nc2ccc(N3CCN(C)CC3)cc2)nc1Nc1cccc(S(=O)(=O)NC(C)(C)C)c1", "note": "[TG101209]", "values": [{"measurement": "pIC50", "setting": "[19]", "result": 7.77}, {"measurement": "pIC50", "setting": "[20]", "result": 7.60}, {"measurement": "inhibition of growth at 5 µM", "setting": "[2]; [27]", "result": -21.3, "unit": "%"}, {"measurement": "pIC50", "setting": "[21]", "result": 8.22}]}
{"compound": "CC(C)OC(=O)C1=CN(C(=O)c2ccc(F)c(F)c2)CC(C)(C)c2c1[nH]c1ccccc21", "note": "[WAY-362450]", "values": [{"measurement": "inhibition of growth at 5 µM", "setting": "[2]; [27]", "result": -2.1, "unit": "%"}, {"measurement": "pEC50", "setting": "[22]", "result": 8.40}]}
{"compound": "C[C@H](NC(=O)Cc1cc(F)cc(F)c1)C(=O)N[C@@H]1C(=O)N(C)c2ccccc2-c2ccccc21", "note": "[YO-01027]", "values": [{"measurement": "inhibition of growth at 5 µM", "setting": "[2]; [27]", "result": 1.4, "unit": "%"}, {"measurement": "pIC50", "setting": "[23]", "result": 8.54}, {"measurement": "pIC50", "setting": "[24]", "result": 8.59}]}
{"compound": "AZ 3146", "values": [{"measurement": "pIC50", "setting": "[25]", "result": "~7.46"}, {"measurement": "Parasite inhibition (%) mean", "setting": "[26]", "result": 3.4, "unit": "%"}]}
